The structures appear in SMILES notation.

As to `Cc1cc(NS(=O)(=O)c2ccc(N)cc2)nc(C)n1`, the logP (usually the decadic logarithm of the partition coefficient of the neutral form, usually between octanol and water) was -0.33.
For the compound `Cn1ccccc1=O`, the logP was -0.23.
As to `CCOC(=O)C(F)(F)F`, the logP stood at 1.18.
As to `CC(=O)c1ccc(Cl)cc1`, the lipophilicity (logP) stood at 2.32.
In the case of `CN(C)N=O`, the lipophilicity (logP) was -0.57.
As for `COc1ccc(Cl)cc1`, the logP is 2.78.
`Nc1ccccc1Oc1ccccc1` returned a logP of 2.46.
In turn, `Nc1ccccc1C(=O)O` yielded a logP of 1.21.
In the case of `CCc1cccc(O)c1`, the logP came out at 2.4.
In turn, `N#Cc1ccccc1O` yielded a logP of 1.61.
For the compound `CCCCC(C)=O`, the logP was found to be 1.38.
In turn, `NC(Cc1ccc(O)c(O)c1)C(=O)OCc1cccc(C(F)(F)F)c1` (configuration not stated) returned a logP of 2.29.
On to `O=[N+]([O-])c1cccc2c1ccc[n+]2[O-]`, for which the log partition coefficient (logP) was 0.49.
The compound `CC(=O)N(c1ccccc1)c1ccccc1` yielded a lipophilicity (logP) of 2.02.
With `FC(F)(F)c1cccc(C2CNCCO2)c1` (configuration not stated), the log partition coefficient (logP) was 2.18.
`CC(=O)c1ccc(N2CCCCC2)cc1` returned a logP of 3.13.
`CC(O)Cc1ccccc1` (configuration not stated) had a logP of 1.97.
The result for `C=CCc1cccc2c(=O)c(C)c(-c3ccccc3)oc12` reads 4.67; that for `Cc1cc(=O)[nH]o1`, 0.46; that for `COc1cccc2c1C(=N)c1c(O)c3c(c(O)c1C2=O)CC(O)(C(=O)CO)CC3OC1CC(N2CCOCC2C#N)C(O)C(C)O1` (configuration not stated), 1.97.
On to `CN(C)C#N`, for which the lipophilicity (logP) is -0.15.
Regarding `CCC1(C2=CCCCC2)C(=O)NC(=O)N(C)C1=O` (configuration not stated), the log partition coefficient (logP) worked out at 2.25.
The result for `CCCCCCNC(=O)c1[nH]nc(C)c1[N+](=O)[O-]` reads 2.46.
`CC(=O)Nc1ccc2cccnc2c1` yielded a logP of 1.55.
The result for `CN(C)CCc1cccnc1` reads 0.82; that for `CC(=O)Oc1ccc([N+](=O)[O-])cc1`, 1.5.
The compound `CCCCNC(=O)n1c(NC(=O)OC)nc2ccccc21` returned a logP of 2.12.
The result for `CCCCOC(=O)N(C)SN(C)C(=O)Oc1cccc2c1OC(C)(C)C2` reads 4.7; that for `CC(=O)NC(C)(C)C(N)=O`, -0.87; that for `CCc1cccc(CC)c1N(COC)C(=O)CCl`, 3.52.
In turn, `CC(=O)OC(OC(C)=O)c1ccccc1` showed a log partition coefficient (logP) of 1.62.
`C1OCOCO1`: the logP was -0.43.
The result for `CCOC(=O)C(=Cc1ccc(OC)cc1OC)C(C)=O` reads 2.41; that for `CCCC[N+](=O)[O-]`, 1.47; that for `Cc1ccc(S(I)=C(N(C)C)N(C)C)cc1` (configuration not stated), -0.1.
Consider `CCOC(=O)C(=O)Nc1ccccc1`, for which the logP is 1.48.
On to `c1ccc2c(c1)Oc1ccccc1S2`, for which the logP was 4.54.
With `Cc1[nH]cnc1CSCCNc1nc(=O)cc[nH]1`, the logP was found to be 0.02.
The result for `CCC(C)N(C(=O)SCc1ccccc1)C(C)CC` (configuration not stated) reads 4.4; that for `Brc1cnc2ccccc2c1`, 3.03.
Turning to `NCCCNC(=O)c1ccccc1`, the logP came out at 0.3.
The result for `COc1ccc(C(=O)OCCN(C)C)cc1` reads 2.21; that for `Cn1ccc(=O)n(C)c1=O`, -0.54.
Take `Oc1ccc(Cl)c2cccnc12`: the logP turned out to be 2.88.
`COc1cc(Cl)cc(Cl)c1` came in with a logP of 3.8.
Consider `O=Cc1cccc([N+](=O)[O-])c1`, for which the logP came out at 1.47.
For the compound `O=C(NCC(O)CO)c1c(I)c(N(CCO)C(=O)CO)c(I)c(N(CCO)C(=O)CO)c1I` (configuration not stated), the log partition coefficient (logP) was -2.55.
The result for `COc1ccc2cccnc2c1` reads 2.37; that for `ClC(Cl)C(c1ccccc1)c1ccccc1`, 4.51.
`CCCCCSCS(=O)CC(CO)NC(=O)C=Cc1c(C)[nH]c(=O)[nH]c1=O` (configuration not stated) showed a logP of 0.6.
The compound `O=c1c2ccccc2oc2ccccc12` displayed a lipophilicity (logP) of 3.39.
The result for `CCCCOC(=O)CNC(=O)CCCCSc1[nH]cnc2ncnc1-2` reads 1.39.
The result for `O=C(O)Cc1ccccc1Nc1c(Cl)cc(O)cc1Cl` reads 3.7; that for `CN(C)C(=O)Nc1ccc(Cl)c(Cl)c1`, 2.68.
`C=CCSc1ccccc1`: the log partition coefficient (logP) is 3.51.
The compound `O=C(CN1CCCCC1)Nc1ccccc1` returned a lipophilicity (logP) of 2.71.
For `Clc1ccc(-c2ccc(Cl)cc2Cl)c(Cl)c1`, the logP was 6.29.
`CCC(=O)C(CC(C)N(C)C)(c1ccccc1)c1ccccc1` (configuration not stated) gave a logP of 3.93.
Turning to `O=c1cc(-c2ccccc2)o[nH]1`, the logP is 2.55.
Take `CNC(=O)Oc1ccc(C(=O)OC)cc1`: the lipophilicity (logP) amounted to 1.5.
In the case of `CC(=O)Oc1cccc(F)c1`, the lipophilicity (logP) was determined as 1.74.
As for `N=C(N)NCCCCc1ccccc1`, the logP is 1.59.
For the compound `NC(=O)c1ccccc1C(N)=O`, the logP is -1.73.
The result for `CCCCC1(c2ccncc2)CCC(=O)NC1=O` (configuration not stated) reads 1.68; that for `CC(O)CN` (configuration not stated), -0.96.
Regarding `COP(=S)(OC)Oc1ccc([N+](=O)[O-])c(C(C)C)c1`, the log partition coefficient (logP) was 4.05.
`O=C1NCCN1c1ncc([N+](=O)[O-])s1`: the log partition coefficient (logP) stood at 0.95.
The result for `Cc1cc2ccccc2[nH]1` reads 2.53.
`CC1CC2C3CC(F)C4=CC(=O)C(Cl)=CC4(C)C3(F)C(O)CC2(C)C1(O)C(=O)CO` (configuration not stated): the logP stood at 2.58.
`COc1cccc(OCC(=O)O)c1` showed a logP of 1.38.
For `C=CCC`, the logP was determined as 2.4.
The result for `COc1ccc(C(=O)O)cc1OC` reads 1.61; that for `CCCCNCCCC`, 2.83.
`C[C@]12CCC(=O)C=C1CC[C@@H]1[C@@H]2C(=O)C[C@@]2(C)[C@H]1CC[C@]2(O)C(=O)CO` showed a logP of 1.47.
Compound `CCC(Br)(CC)C(=O)NC(N)=O` yielded a lipophilicity (logP) of 1.54.
For the compound `NC(Cc1c[nH]c2ccccc12)C(=O)O` (racemic), the log partition coefficient (logP) was -1.05.
Compound `ON=Cc1ccccc1` registered a logP of 1.85.
As to `CCCCOC(=O)n1cnc(CC(NC(=O)C2CCC(=O)N2)C(=O)N2CCCC2C(N)=O)c1` (configuration not stated), the lipophilicity (logP) was -0.47.
For `CCc1cccc(S(I)=C(N(C)C)N(C)C)c1` (configuration not stated), the logP came out at 0.34.
The result for `CCCOC(=O)C(C(=O)OCCC)=C1SC=CS1` reads 3.93.
On to `O=C(O)C(Cc1ccccc1)n1cccc1` (configuration not stated), for which the log partition coefficient (logP) was found to be 2.34.
For `CNCCNC`, the logP is -0.62.
The result for `CCc1ccc(S(I)=C(N(C)C)N(C)C)cc1` (configuration not stated) reads 0.29; that for `NC(=O)C(Cc1ccccc1)NC(=O)C(N)Cc1ccccc1` (configuration not stated), 1.13; that for `Oc1nc2ccccc2s1`, 1.76.
On to `O=C(Nc1ccc(Cl)cc1)c1cccnc1`, for which the logP stood at 2.52.
The result for `COCC1COC(Cn2cncn2)(c2ccc(Cl)cc2Cl)O1` (configuration not stated) reads 2.21.
The compound `C#CC1(O)CCCCC1` had a lipophilicity (logP) of 1.73.
`O=C(CN1CCCCC1)Nc1cccc([N+](=O)[O-])c1` gave a logP of 2.59.
`CC1=CC(=O)C=C(Br)C1=O` gave a logP of 1.21.
The result for `COC(=O)/C=C\C(=O)OC` reads 0.22.
On to `N#Cc1ccco1`, for which the logP turned out to be 0.96.
Turning to `N[C@@H](CCC(=O)O)C(=O)O`, the lipophilicity (logP) was -3.69.
`c1cnc2nccnc2c1`: the log partition coefficient (logP) was -0.04.
The result for `CCCC(=O)NN` reads -0.62; that for `CCOP(=S)(Oc1ccc(C#N)cc1)c1ccccc1` (configuration not stated), 4.29; that for `O=C(CCCN1CCN(c2ccccn2)CC1)c1ccc(F)cc1`, 3.3.
The compound `COc1cc(S(C)=O)ccc1-c1cn2ccnc(OC)c2n1` (configuration not stated) showed a logP of 1.49.
The compound `Clc1ccc(Cl)c(-c2cc(Cl)ccc2Cl)c1` showed a log partition coefficient (logP) of 6.09.
The result for `CC(N)=S` reads -0.26; that for `CCc1cccc(OCC(=O)O)c1`, 2.25.
For `CS(=O)(=O)c1ccc(Cl)cc1`, the logP was determined as 1.06.
The result for `c1ccc(-c2cccs2)cc1` reads 3.74; that for `COC(=O)CNC(=O)c1ccc(N)cc1`, -0.23.
Consider `CNC1=CC(=O)C(NC)=CC1=O`, for which the logP stood at 0.34.
On to `O=c1nccc[nH]1`, for which the logP was -1.62.
`O=Cc1ccc(OCC(=O)O)cc1` showed a lipophilicity (logP) of 0.79.
Consider `O=Cc1cccc(Oc2ccccc2)c1`, for which the logP was 3.38.
As for `N#CSCc1ccccc1`, the logP came to 1.99.
`CCCCC(=O)O[C@]1(C(=O)CO)CC[C@H]2[C@@H]3CCC4=CC(=O)CC[C@]4(C)[C@H]3[C@@H](O)C[C@@]21C` showed a logP of 3.79.
As to `c1cncc([C@@H]2CCCCN2)c1`, the logP was 0.97.
`Clc1cc(Cl)cc(Cl)c1`: the lipophilicity (logP) is 4.19.
`O=[N+]([O-])c1ccccc1` showed a logP of 1.85.
As to `CCCCCC(C)(C)c1ccc(C2CCCC(O)C2)c(O)c1` (configuration not stated), the logP worked out at 5.97.
The result for `CNC(=S)NC` reads -0.24; that for `CCC1(CCC(C)C)C(=O)NC(=O)NC1=O`, 2.07; that for `CCc1ccco1`, 2.4.
Consider `Cc1cccc(Nc2ccccc2C(=O)O)c1C`, for which the log partition coefficient (logP) is 5.12.
Compound `N#Cc1ccc(OCC(=O)O)cc1` came in with a log partition coefficient (logP) of 0.93.
The result for `O=S1(=O)N=CNc2ccccc21` reads 0.16.
`C(=NN1CCCCC1)c1ccccc1` registered a logP of 3.04.
`COC(=O)Nc1nc2ccccc2[nH]1`: the logP was determined as 1.52.
Turning to `CC(C)NCC(O)COc1cccc2[nH]c3ccccc3c12` (configuration not stated), the logP amounted to 3.59.
`CC(=O)Nc1ccc2[nH]c(C)cc2c1` displayed a logP of 1.21.
The result for `CCCCCCCCCCCCCC` reads 7.2.
The compound `Cc1cccc(C)c1C` showed a log partition coefficient (logP) of 3.66.
`COC1C(O)C(C)OC(OC2CCC3(C=O)C(CCC4C3CCC3(C)C(C5=CC(=O)OC5)CCC43O)C2)C1O` (configuration not stated) had a logP of 1.05.
For `c1cnc2c(c1)ccc1cccnc12`, the logP was 1.78.
In turn, `Brc1ccccc1Br` came in with a log partition coefficient (logP) of 3.64.
Compound `CCC1(CC)C(=O)NC(=O)N(C)C1=O` came in with a log partition coefficient (logP) of 1.15.
`CCOC(=O)CC(=O)c1ccccc1` yielded a logP of 1.87.
The compound `O=C(Nc1ccccc1)N(c1ccccc1)c1ccccc1` yielded a logP of 3.28.
As to `CCN(N=O)C(=O)N(C)C`, the logP came to 0.71.
Compound `CCNC(=S)Nc1ccccc1` had a logP of 1.42.
`CC(O)C(F)(F)F` (configuration not stated) gave a logP of 0.71.
The result for `O=C(c1ccccc1)c1ccccn1` reads 1.88.
Consider `BrCCCBr`, for which the lipophilicity (logP) was determined as 2.37.

For the origin of these results see the OPERA property sets (Mansouri et al. 2018).
